Patent US9132126B2, “Phenyl-isoxazole derivatives and preparation process thereof” (priority 2011, dated 2015)
≈ marks a conversion by molar mass, not a printed value. Where “and” joins values, the source holds several entries; their conditions need not be identical. Identical values can stand only once. Like-named read-outs stand apart in the source and are kept apart here.

How the values were obtained:
[1] = system: influenza virus (K09) expressing GFP; assay type: cell-based; set-up: key: ◯ = effective; X = ineffective
[2] = system: novel influenza virus (B/Field); assay: microbe, parasite or virus in culture; assay type: cell-based
[3] = Acute toxicity test through oral administration in a rat; assay type: in vivo; conditions: male SD-Rat, single oral administration, 14 days observation; for LD50 at 14 days: Sprague-Dawley (SD), in vivo
Protocol: The acute toxicity of the inventive compound was determined through oral administration in a rat. Since the compound is expected to be orally administered in a clinical situation, an oral administration route was selected. A male rat aged 6 weeks (SD-Rat, 220±30 g) was subjected to quarantine, and acclimated for 1 week under a condition of lighting of 12 hours (08:00˜20:00), and luminance of 150-300 Lux at 22±3° C. at a relative humidity of 50±20%, while being freely fed with feed and water. Each of a control group and an experimental group include 8 rats. The control group was orally administered with 0.5% HPMC, and the experimental group was orally administered with a material (different concentrations) suspended in 0.5% HPMC, by using a sonde in an amount in proportion to the measured weight of each individual.
The concentration of the drug administered to the experimental group was set as 2000 mg/kg (the highest concentration for a single dose administration in a non-clinical test), and 1000 mg/kg, and 500 mg/kg (with a common ratio). For 14 days from drug administration, clinical symptoms were observed while the weight change was measured. Test animals that died during the test were subjected to autopsy, and abnormalities of main organs (heart, liver, lung, spleen, kidney, and large intestine) were observed and recorded. On the last day of the test (on the 14th day from the administration), all individuals were subjected to autopsy, and the changes of the organs caused by a test material were observed and compared to those in the control group. In the control group, no rats had died, and abnormalities were not observed through autopsy.
Each group was orally administered in a concentration of 500 mg/kg, 1000 mg/kg, and 2000 mg/kg. For 14 days from the administration, according to the test method, clinical symptoms were observed. […] Also, in the groups administered in various amounts, no individuals died. […] Further, no abnormal responses were observed, and from the autopsy results, no peculiarities were observed.

[4] = system: cell (MDCK) infected with an influenza virus (K09); assay: Cytotoxicity assay using MTT; assay type: cell-based; conditions: compound 24 hours
Protocol: (§1) In this experiment, a cell was infected with a virus, and then the virus was directly treated with a compound so as to determine if the virus-infected cell has toxicity. For this, a cell (MDCK) was infected with an influenza virus (K09) for 1 hour, and treated with the compound with different concentrations for 24 hours. Then, the cell was treated with a MTT reagent for 1 hour. After 1 hour, a formazan crystal produced by the MTT reagent was dissolved in DMSO, and the absorbance was measured by an ELISA reader so as to determine CC50.
(§2) measured by MTT assay. A maximum concentration of the compound, at which the number of cells is reduced to half or more compared to that of a control group

[5] = system: novel influenza virus (K09); assay: microbe, parasite or virus in culture; assay type: cell-based; conditions: for EC50: MDCK, 72 h, read-out: Plaque reduction (Experimental Example 2) EC50
[6] = system: H1N1 influenza virus (solomon); assay: microbe, parasite or virus in culture; assay type: cell-based
[7] = Cytotoxicity assay using MTT; assay type: cell-based; conditions: dog, MDCK cells infected with influenza virus (K09), MDCK cell infected with K09; compound 24 hours; read-out: MTT assay (Experimental Example 3) CC50
Protocol: as §1, §2

[8] = Influenza A virus, Solomon (H1N1), read-out: EC50

Structure (SMILES) | GFP reduction (Experimental Example 1) effect [1] | SI value [2] | EC50 ([2]; B/Field) | LD50 [3] | MTT assay (Experimental Example 3) CC50 [4] | Plaque reduction (Experimental Example 2) EC50 [5] [µg/mL] | SI value K09 [5] | SI value [6] | EC50 ([6]; Solomon (H1N1)) [µg/mL] | SI value ([2]; B/Field, CC50/EC50) | EC50 ([2]; unidentified influenza virus) [µg/mL] | LD50 at 14 days [3] [mg/kg] | CC50 at 24 h [7] [µg/mL] | EC50 [5] [µg/mL] | EC50 [6, 8] [µg/mL] | SI value ([6]; Solomon (H1N1), CC50/EC50) | SI value K09 ([5]; K09, CC50/EC50) | Plaque reduction (Experimental Example 2) EC50 ([5]; K09, MDCK cell, 72 hours) [µg/mL]
COc1ccccc1N1CCN(C(=O)c2c(-c3ccccc3C(F)(F)F)noc2C)CC1 [Example 4] | ◯ | 1.563> | 50< μg/ml | 2,000< mg/kg | 78.12 to 156.25 µg/mL and 78.125 to 156.25 µg/mL | 12.5 to 25 | 3.125 to 12.5 | 6.25 to 12.5 | 12.5 (≈ 28.1 µM) |  |  |  |  |  |  |  |  | 
Cc1onc(-c2cccc(F)c2)c1C(=O)N1CCN(c2ccc(Cl)c(Cl)c2)CC1 [Example 11, (4-(3,4-dichlorophenyl)piperazine-1-yl)(3-(3-fluorophenyl)-5-methylisoxazol-4-yl)methanone] | ◯ |  |  |  |  |  |  |  |  | 67.529 to 147.058 | 4.25 (≈ 9.79 µM) | > 2000 | 287 to 625 (≈ 661 to 1440 µM) | < 0.16 | 0.087 to 0.199 (≈ 0.2 to 0.458 µM) | 1442.211 to 7183.908 |  | 
COc1cccc(N2CCN(C(=O)c3c(-c4cccc(F)c4)noc3C)CC2)c1 [Example 12, (3-(3-fluorophenyl)-5-methylisoxazol-4-yl)(4-(3-methoxyphenyl)piperazine-1-yl)methanone] | ◯ |  |  |  |  |  |  |  |  |  | > 50 | > 2000 | 78.1 to 156 (≈ 198 to 395 µM) | 3.12 (≈ 7.9 µM) | 0.781 (≈ 1.98 µM) | 100.032 to 200.064 | 25 to 50 | 
Cc1onc(-c2cccc(F)c2)c1C(=O)N1CCN(c2ccccc2O)CC1 [Example 16, (3-(3-fluorophenyl)-5-methylisoxazol-4-yl)(4-(2-hydroxyphenyl)piperazine-1-yl)methanone] | ◯ |  |  |  | 78.125 µg/mL |  |  |  |  | 3.125 | 25 (≈ 65.5 µM) | > 2000 | 78.1 (≈ 205 µM) | 0.39 (≈ 1.02 µM) | 0.097 to 0.195 (≈ 0.254 to 0.511 µM) | 400.641 to 805.412 | 200.321 | 
Cc1onc(-c2ccccc2OC(F)(F)F)c1C(=O)N1CCN(c2ccc(Cl)c(Cl)c2)CC1 [Example 35, (4-(3,4-dichlorophenyl)piperazine-1-yl)(5-methyl-3-(2-(trifluoromethoxy)phenyl)isoxazol-4-yl)methanone] | ◯ |  |  |  |  |  |  |  |  | 50 to 100 | 6.25 (≈ 12.5 µM) | > 2000 | 312 to 625 (≈ 625 to 1250 µM) | 0.395 to 0.781 (≈ 0.79 to 1.56 µM) | 0.097 to 0.195 (≈ 0.194 to 0.39 µM) | 1602.564 to 6443.298 |  | 
COc1cccc(N2CCN(C(=O)c3c(-c4ccccc4OC(F)(F)F)noc3C)CC2)c1 [Example 36] | ◯ |  |  |  | 500< μg/ml |  |  |  |  |  |  |  |  |  |  |  | 320< | 1.56
COc1cccc(N2CCN(C(=O)c3c(-c4ccccc4Cl)noc3N)CC2)c1 [Example 60, (5-amino-3-(2-chlorophenyl)isoxazol-4-yl)(4-(3-methoxyphenyl)piperazine-1-yl)methanone] | ◯ |  |  |  |  |  |  |  |  | 80< | 6.25 (≈ 15.1 µM) | > 2000 | > 500 | 0.195 (≈ 0.473 µM) | 0.053 to 0.094 (≈ 0.128 to 0.228 µM) |  |  | 
Nc1onc(-c2ccccc2OC(F)(F)F)c1C(=O)N1CCN(c2ccc(Cl)c(Cl)c2)CC1 [Example 83] | ◯ |  |  | 2,000< mg/kg | 150.3 to 189.64 µg/mL |  |  |  |  |  |  |  |  |  |  |  | 100.2 to 291.75 | 0.65 to 1.5
COc1cccc(N2CCN(C(=O)c3c(-c4ccccc4C(F)(F)F)noc3N)CC2)c1 [Example 92] | ◯ |  |  |  | 14.62 to 33.52 µg/mL |  |  |  |  |  |  |  |  |  |  |  | 0.32 to 1.59 | 21 to 45
Nc1onc(-c2ccc(OC(F)(F)F)cc2)c1C(=O)N1CCN(c2ccc(Cl)c(Cl)c2)CC1 [Example 99] | ◯ |  |  |  | 14.62 to 33.52 µg/mL |  |  |  |  |  |  |  |  |  |  |  | 0.32 to 1.59 | 21 to 45
CCOC(=O)C1CCN(C(=O)c2c(-c3ccccc3OC(F)(F)F)noc2N)CC1 [Example 124] | ◯ | 6.25> | 50< μg/ml | 2,000< mg/kg | 312.5 µg/mL | 3.125 to 6.25 | 50 to 100 | 50 | 6.25 (≈ 14.6 µM) |  |  |  |  |  |  |  |  | 
CCOC(=O)C1=C[C@@H](OC(CC)CC)[C@H](NC(C)=O)[C@@H](N)C1 [Oseltamivir, reference compound] | X |  |  |  |  |  |  |  |  | 200 to 100 | 6.25 (≈ 20 µM) | > 2000 | 625 to 1250 (≈ 2000 to 4000 µM) | 0.391 (≈ 1.25 µM) | 3.12 to 6.25 (≈ 10 to 20 µM) | 100 to 400 |  | 
